From patent US20150065494A1, “AMINOSTYRYLBENZOFURAN DERIVATIVES AS INHIBITORS AGAINST BETA-AMYLOID FIBRIL FORMATION, AND PHARMACEUTICAL COMPOSITION COMPRISING SAME” (KOREA INSTITUTE OF SCIENCE AND TECHNOLOGY, priority 2012, published 2015) come the findings set out here.

Structures can show the parent of a compound that is named as a salt.

For one assay, the target named is T1, beta-amyloid 42 (Aβ42) (Homo sapiens, UniProt P05067).
T1 construct: Beta-amyloid 42 (Aβ42) was dissolved in dimethylsulfoxide (DMSO) to form a 250 mM Aβ42 stock solution
T1 sequence (P05067 672-713 limits assumed): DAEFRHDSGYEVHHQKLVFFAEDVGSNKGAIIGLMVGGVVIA
The assay is described as follows: Inhibitory effect on the formation of beta-amyloid fibrils in vitro (ThT fluorescence assay). The assay is classed as biochemical. The settings on record: 10 μM. Here is the method: Beta-amyloid 42 (Aβ42) was dissolved in dimethylsulfoxide (DMSO) to form a […] Aβ42 stock solution. In addition, ThT (thioflavin T) was dissolved in distilled water to obtain a concentration of 1 mM and subsequently diluted with 50 mM glycin buffer (pH 8.5) to yield a 5 μM ThT stock solution. 45 μL of PBS (phosphate buffer saline, pH 7.4) was added to each of a 96-well fluorescence microplate (white, F-bottom). 5 μL of the 250 μM Aβ42 stock solution was added to each well. The final concentration of each compound obtained in Examples was in a range of 10 to 0.001 μM by adding 2 μL of a solution, which was prepared by dissolving the subject compounds obtained in Examples in DMSO, to each well. At this time, the final concentration of Aβ42 in each well was 25 μM. The plate was then incubated for 1 hr at room temperature, and 150 μL of the 5 μM ThT stock solution was added to each well.
The fluorescence intensity of each well was determined with the multi-label fluorescence counter (LS-55 Luminescence spectrometer: Perkin Elmer) at an excitation wavelength of 450 nm (excitation slit width: 10 nm) and an emission wavelength of 482 nm (emission slit width: 10 nm), while adjusting counting time to 1 second. The control group was prepared by adding PBS solution, Aβ42 and DMSO, without adding the inventive compound prepared above. A percent inhibition on the formation of beta-amyloid fibrils was calculated in accordance with the following equation, and IC50 was calculated by using GraphPad Prism version 4.03 Program.
% Inhibition=[1−(C−D)/(A−B)]×100
A (control group)=fluorescence intensity in a group treated with PBS solution, Aβ42 and DMSO
B (blank)=fluorescence intensity in a group treated with PBS solution and DMSO
C (experimental group)=fluorescence intensity in a group treated with PBS solution, Aβ42, the inventive compound and DMSO
D (compensation value to the experimental group) =fluorescence intensity in a group treated with PBS solution, the inventive compound and DMSO
Consider `CN(C)c1ccc(/C=C/c2cc3ccc(OCCCN4CCOCC4)cc3o2)cc1.Cl` [Example 25, (E)-6-(3-(4-morpholinopropoxy))-2-(4-dimethylaminostyryl)benzofuran hydrochloride], for which the “Aβ42 % inhibition compared with comparative compound curcumin” value is “equal to or greater than that of the comparative compound, curcumin”.
On to `COc1ccc2cc(/C=C/c3ccc(N(C)CCF)cc3)oc2c1` [Example 20, (E)-6-(methoxy)-2-(4,4′-methyl(2-fluoroethyl)aminostyryl)benzofuran], for which the “Aβ42 % inhibition compared with comparative compound curcumin” value is given as “equal to or greater than that of the comparative compound, curcumin”.

The assay is the same for the next values; noted with them: 10 μM compound; 25 μM Aβ42; ThT fluorescence.
`CN(C)c1ccc(/C=C/c2cc3ccc(OCCCN4CCCCC4)cc3o2)cc1` [Example 11, (E)-6-(3-(1-piperidinyl)propoxy)-2-(4-dimethylaminostyryl)benzofuran]: the inhibition at 10 µM is below 50%.
For the compound `CN(C)c1ccc(/C=C/c2cc3ccc(OCCCc4cccnc4)cc3o2)cc1` [Example 38, (E)-6-(3-(3-pyridinyl)propoxy)-2-(4-dimethylaminostyryl)benzofuran hydrochloride], the inhibition at 10 µM was below 50%.
`CN(C)c1ccc(/C=C/c2cc3ccc(OCCCN4CCOCC4)cc3o2)cc1.Cl` [Example 25, (E)-6-(3-(4-morpholinopropoxy))-2-(4-dimethylaminostyryl)benzofuran hydrochloride]: the “% Inhibition (10 μM)” value was “*** (*** (70%≦))”.
`CN(C)c1ccc(/C=C/c2cc3ccc(OCCN4CCCCC4)cc3o2)cc1.Cl` [Example 29]: the “% Inhibition (10 μM)” value is on record as “* (* (<50%))”.
Regarding `COc1cc(/C=C/C(=O)CC(=O)/C=C/c2ccc(O)c(OC)c2)ccc1O` [Curcumin, curcumin, reference compound], the inhibition at 10 µM is at least 70%.
In the case of `C[C@@H]1CN(CCCOc2ccc3cc(/C=C/c4ccc(N(C)C)cc4)oc3c2)C[C@H](C)O1` [Example 28, (E)-6-(3-((2S,6R)-2,6-dimethylmorpholino)propoxy)-2-(4-dimethylaminostyryl)benzofuran hydrochloride], the inhibition at 10 µM was below 50%.
With `CN(C)c1ccc(/C=C/c2cc3ccc(OCCN4CCOCC4)cc3o2)cc1.Cl` [Example 27, (E)-6-(2-(4-morpholinoethoxy))-2-(4-dimethylaminostyryl)benzofuran hydrochloride], the “% Inhibition (10 μM)” value is recorded as “** (** (50% ≦ × < 70%))”.
As to `CN(C)c1ccc(/C=C/c2cc3ccc(OCCN4CCOC4)cc3o2)cc1` [Example 21, (E)-6-(2-(3-oxazolidinyl)ethoxy)-2-(4-dimethylaminostyryl)benzofuran hydrochloride], the inhibition at 10 µM lay within 50 to 70%.
`COc1ccc2cc(/C=C/c3ccc(N(C)CCF)cc3)oc2c1` [Example 20, (E)-6-(methoxy)-2-(4,4′-methyl(2-fluoroethyl)aminostyryl)benzofuran] came in with an inhibition at 10 µM of at least 70%.
For `CN1CCCC(COc2ccc3cc(/C=C/c4ccc(N(C)C)cc4)oc3c2)C1` (stereo not shown) [Example 32, (E)-6-(1-methyl-3-piperidinylmethoxy)-2-(4-dimethylaminostyryl)benzofuran hydrochloride], the inhibition at 10 µM is below 50%.
For `CN(C)c1ccc(/C=C/c2cc3ccc(OCCCN4CCS(=O)(=O)CC4)cc3o2)cc1.Cl` [Example 35, (E)-6-(3-(thiomorpholine-1,1-dioxide)propoxy)-2-(4-dimethylaminostyryl)benzofuran hydrochloride], the “% Inhibition (10 μM)” value was “* (* (<50%))”.
Take `CN(C)c1ccc(/C=C/c2cc3ccc(OCCCN4CCSCC4)cc3o2)cc1.Cl` [Example 34, (E)-6-(3-(4-thiomorpholinopropoxy))-2-(4-dimethylaminostyryl)benzofuran hydrochloride]: the “% Inhibition (10 μM)” value is on record as “* (* (<50%))”.
The compound `CN(C)c1ccc(/C=C/c2cc3ccc(OCC4CCCCN4C)cc3o2)cc1` (stereo not shown) [Example 31, (E)-6-(1-methyl-2-piperidinylmethoxy)-2-(4-dimethylaminostyryl)benzofuran hydrochloride] registered an inhibition at 10 µM below 50%.
Turning to `CN(C)c1ccc(/C=C/c2cc3ccc(OCCCc4ccccn4)cc3o2)cc1` [Example 37, (E)-6-(3-(2-pyridinyl)propoxy)-2-(4-dimethylaminostyryl)benzofuran hydrochloride], the inhibition at 10 µM is below 50%.
`CCN(CC)CCCOc1ccc2cc(/C=C/c3ccc(N(C)C)cc3)oc2c1` [Example 24, (E)-6-(3-diethylaminopropoxy)-2-(4-dimethylaminostyryl)benzofuran hydrochloride] came in with an inhibition at 10 µM of 50 to 70%.
With `CN1CCN(CCCOc2ccc3cc(/C=C/c4ccc(N(C)C)cc4)oc3c2)CC1` [Example 33, (E)-6-(3-(4-methyl-1-piperazinyl)propoxy)-2-(4-dimethylaminostyryl)benzofuran hydrochloride], the inhibition at 10 µM is below 50%.
The same measure, in the same setting: for `CN(C)c1ccc(/C=C/c2cc3ccc(OCCCc4ccncc4)cc3o2)cc1` [Example 17, (E)-6-(3-(4-pyridinyl)propoxy)-2-(4-dimethylaminostyryl)benzofuran] the value was below 50%.

In general, inhibition refers to the relative decrease from the control value, in per cent. A low value points to little suppression.
